Results on 2 compounds are retold here after ChEMBL document CHEMBL1201861, “Genomics of Drug Sensitity in Cancer screening data, Wellcome Trust Sanger Institute”.

Holding throughout (assay): cells
What all share (type): functional, cell-based, Homo sapiens

The test system of one assay is K562. The settings on record: Homo sapiens, K562.
Another assay deals with KYSE-510. The conditions noted are these: Homo sapiens, KYSE-510.
The next assay has as its system CAL-12T. The settings on record: Homo sapiens, CAL-12T.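 Further: growth inhibition of human CAL-12T cells, read out with a cell viability assay.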
For another assay, the system named is D-336MG. The conditions noted are these: Homo sapiens, D-336MG.
The test system of the next assay is SW900. The settings on record: Homo sapiens, SW900.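 Further: IC50 is the concentration that inhibits SW900 cell growth, measured by a cell viability assay.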
Another assay relates to C8166. The conditions noted are these: Homo sapiens, C8166.
The next assay concerns VMRC-RCZ. The conditions noted are these: Homo sapiens, VMRC-RCZ.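 Further: growth inhibition measured with a cell viability assay.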
The test system of another assay is GR-ST. The settings on record: Homo sapiens, GR-ST.
Another assay relates to HCC1937. The settings on record: Homo sapiens, HCC1937.
In another assay the test system is SNU-C2B. The settings on record: Homo sapiens, SNU-C2B.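 Further: cell viability readout used to measure compound-driven suppression of SNU-C2B cell proliferation, IC50 marking half-maximal growth inhibition.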
In the next assay the test system is KLE. The conditions noted are these: Homo sapiens, KLE.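 Further: growth inhibition of human KLE cells, read out with a cell viability assay.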
A further assay concerns A388. The conditions noted are these: Homo sapiens, A388.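 Further: growth inhibition of human A388 cells, read out with a cell viability assay.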
A further assay concerns LXF-289 cell line. The settings on record: Homo sapiens, LXF-289.
The test system of a further assay is LU-139. The settings on record: Homo sapiens, LU-139.
Another assay concerns BHT-101. The settings on record: Homo sapiens, BHT-101.

Some results are limits rather than exact numbers.

What is called IC50 is the concentration needed to halve the response being measured.

Description for A388: SANGER: Inhibition of human A388 cell growth in a cell viability assay.
Description for BHT-101: SANGER: Inhibition of human BHT-101 cell growth in a cell viability assay.
Description for C8166: SANGER: Inhibition of human C8166 cell growth in a cell viability assay.
Description for CAL-12T: SANGER: Inhibition of human CAL-12T cell growth in a cell viability assay.
Description for D-336MG: SANGER: Inhibition of human D-336MG cell growth in a cell viability assay.
Description for GR-ST: SANGER: Inhibition of human GR-ST cell growth in a cell viability assay.
Description for HCC1937: SANGER: Inhibition of human HCC1937 cell growth in a cell viability assay.
Description for K562: SANGER: Inhibition of human K-562 cell growth in a cell viability assay.
Description for KLE: SANGER: Inhibition of human KLE cell growth in a cell viability assay.
Description for KYSE-510: SANGER: Inhibition of human KYSE-510 cell growth in a cell viability assay.
Description for LU-139: SANGER: Inhibition of human LU-139 cell growth in a cell viability assay.
Description for LXF-289 cell line: SANGER: Inhibition of human LXF-289 cell growth in a cell viability assay.
Description for SNU-C2B: SANGER: Inhibition of human SNU-C2B cell growth in a cell viability assay.
Description for SW900: SANGER: Inhibition of human SW900 cell growth in a cell viability assay.
Description for VMRC-RCZ: SANGER: Inhibition of human VMRC-RCZ cell growth in a cell viability assay.

`COc1cc2ncnc(Nc3ccc(F)c(Cl)c3)c2cc1OCCCN1CCOCC1` [GEFITINIB]: the IC50 in the assay on K562, with KYSE-510, with CAL-12T, in the assay with D-336MG, in the assay with SW900 and with C8166 was > 500 nM each time. Besides, the 50% inhibitory concentration (IC50) with VMRC-RCZ, in the assay with GR-ST, in the assay with HCC1937, with SNU-C2B, with KLE and in the assay with A388 was > 500 nM each time. Also, the IC50 with LXF-289 cell line and in the assay on LU-139 was > 500 nM in each case.
In the assay on BHT-101, `CCc1cncnc1N1CCN(Cc2nc3cc(C(F)(F)F)ccc3[nH]2)CC1` had a half-maximal inhibitory concentration (IC50) of 820 nM.
